Target: T1, Human macrophage mannose receptor 1 (MRC1) (Homo sapiens, UniProt P22897)
T1 sequence (P22897 19-1456): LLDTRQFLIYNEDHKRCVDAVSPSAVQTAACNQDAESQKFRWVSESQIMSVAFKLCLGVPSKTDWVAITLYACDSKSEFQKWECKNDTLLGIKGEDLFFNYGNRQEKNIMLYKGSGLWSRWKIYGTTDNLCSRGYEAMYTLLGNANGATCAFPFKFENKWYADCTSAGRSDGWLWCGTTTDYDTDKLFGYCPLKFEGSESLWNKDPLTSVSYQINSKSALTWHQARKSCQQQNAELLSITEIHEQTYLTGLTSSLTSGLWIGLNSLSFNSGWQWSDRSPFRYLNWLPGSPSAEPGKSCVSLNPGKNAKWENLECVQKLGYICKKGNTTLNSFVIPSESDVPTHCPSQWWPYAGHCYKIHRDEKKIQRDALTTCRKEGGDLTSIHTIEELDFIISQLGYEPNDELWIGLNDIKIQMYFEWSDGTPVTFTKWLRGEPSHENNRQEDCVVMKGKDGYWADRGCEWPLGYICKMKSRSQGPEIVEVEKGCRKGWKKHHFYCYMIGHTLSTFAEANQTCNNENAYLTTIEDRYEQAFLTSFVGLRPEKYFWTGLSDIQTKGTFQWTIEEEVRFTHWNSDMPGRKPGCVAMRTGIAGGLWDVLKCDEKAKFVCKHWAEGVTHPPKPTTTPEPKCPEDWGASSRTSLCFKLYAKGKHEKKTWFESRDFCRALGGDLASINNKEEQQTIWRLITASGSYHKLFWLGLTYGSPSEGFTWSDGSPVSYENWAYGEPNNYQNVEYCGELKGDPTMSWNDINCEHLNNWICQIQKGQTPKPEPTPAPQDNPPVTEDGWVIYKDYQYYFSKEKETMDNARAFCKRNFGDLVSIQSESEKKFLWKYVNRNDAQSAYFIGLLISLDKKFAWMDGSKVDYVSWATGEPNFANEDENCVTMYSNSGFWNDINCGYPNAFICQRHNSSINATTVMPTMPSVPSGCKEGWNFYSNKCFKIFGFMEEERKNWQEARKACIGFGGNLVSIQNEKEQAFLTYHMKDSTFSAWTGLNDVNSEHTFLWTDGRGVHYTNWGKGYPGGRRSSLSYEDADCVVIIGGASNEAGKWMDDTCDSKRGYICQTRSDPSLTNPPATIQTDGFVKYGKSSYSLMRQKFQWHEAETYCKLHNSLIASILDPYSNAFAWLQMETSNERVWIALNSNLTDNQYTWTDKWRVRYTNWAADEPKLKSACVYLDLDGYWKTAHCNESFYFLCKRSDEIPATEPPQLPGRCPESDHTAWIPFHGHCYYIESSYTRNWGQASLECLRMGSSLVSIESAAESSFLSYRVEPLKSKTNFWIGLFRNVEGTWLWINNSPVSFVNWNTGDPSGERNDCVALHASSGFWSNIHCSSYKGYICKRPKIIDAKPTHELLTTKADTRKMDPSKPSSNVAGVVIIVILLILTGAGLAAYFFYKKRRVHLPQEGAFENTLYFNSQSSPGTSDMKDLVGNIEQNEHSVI
Test: MRC1 competition binding assay with Eu-mannosylated-BSA
Conditions: Method E: 96-well plate; IP = inflection point; read-out: MRC1 Binding IP
Experimental: The competition binding assay for Human macrophage mannose receptor 1 (MRC1) utilized a ligand, mannosylated-BSA labeled with the DELFIA Eu-N1-ITC reagent, as reported in the literature. Assay was performed either in a 96-well plate with 100 μL well volume (Method E) or in a 384-well plate with 25 μL well volume (Method F). […] The antibody was incubated in the plate for 1 hr at rt with shaking. The plate was washed with wash buffer 3-5 times followed by addition of MRC1 (2 ng/μl final concentration) in PBS containing 1% stabilizer BSA. The plate was incubated at rt with gentle shaking for 1 hr. The plate was washed three times with wash buffer. The IOC molecules in 12.5 μL (or 50 μL depending on plate format) buffer at appropriate concentrations were added followed by 12.5 μL (or 50 μL) Eu-mannosylated-BSA (0.1 nm final concentration) in 50 mM Tris, pH 7.5 containing 100 mM NaCl, 5 mM CaCl2, 1 mM MgCl2 and 0.2% stabilizer BSA. The plate was incubated for 2 hrs at rt with shaking followed by washing three times with wash buffer.

Row | Structure (SMILES) | IC50
1 | CC(=O)[C@H](CCCCN)NC(=O)CCCCC(=O)NCC(=O)N[C@@H](CCC(=O)N[C@@H](CCC(=O)NCCCCCC(=O)NCCO[C@H]1O[C@H](CO[C@H]2O[C@H](CO)[C@@H](O)[C@H](O)[C@@H]2O)[C@@H](O)[C@H](O[C@H]2O[C@H](CO)[C@@H](O)[C@H](O)[C@@H]2O)[C@@H]1O)C(=O)NCCCCCC(=O)NCCOC1O[C@H](CO[C@H]2O[C@H](CO)[C@@H](O)[C@H](O)[C@@H]2O)[C@@H](O)[C@H](O[C@H]2O[C@H](CO)[C@@H](O)[C@H](O)[C@@H]2O)[C@@H]1O)C(=O)NCCCCCC(=O)NCCO[C@H]1O[C@H](CO[C@H]2O[C@H](CO)[C@@H](O)[C@H](O)[C@@H]2O)[C@@H](O)[C@H](O[C@H]2O[C@H](CO)[C@@H](O)[C@H](O)[C@@H]2O)[C@@H]1O (stereo partly shown) [IOC-5] | 9.12 nM
2 | CC(=O)[C@H](CCCCN)NC(=O)CCCCC(=O)N[C@@H](CCC(=O)NCCO[C@H]1O[C@H](CO)[C@@H](O)[C@H](O)[C@@H]1O)C(=O)N[C@@H](CCC(=O)NCCO[C@H]1O[C@H](CO)[C@@H](O)[C@H](O)[C@@H]1O)C(=O)N[C@@H](CCC(=O)NCCO[C@H]1O[C@H](CO)[C@@H](O)[C@H](O)[C@@H]1O)C(=O)NCCO[C@H]1O[C@H](CO)[C@@H](O)[C@H](O)[C@@H]1O [IOC-16] | 86.7 nM
3 | CC(=O)[C@H](CCCCN)NC(=O)CCCCCNC(=O)[C@H](CCCCNC(=O)CCCCC(=O)NCCO[C@H]1O[C@H](CO[C@H]2O[C@H](CO)[C@@H](O)[C@H](O)[C@@H]2O)[C@@H](O)[C@H](O[C@H]2O[C@H](CO)[C@@H](O)[C@H](O)[C@@H]2O)[C@@H]1O)NC(=O)[C@H](CCCCNC(=O)CCCCC(=O)NCCO[C@H]1O[C@H](CO[C@H]2O[C@H](CO)[C@@H](O)[C@H](O)[C@@H]2O)[C@@H](O)[C@H](O[C@H]2O[C@H](CO)[C@@H](O)[C@H](O)[C@@H]2O)[C@@H]1O)NC(=O)CCCCC(=O)NCCO[C@H]1O[C@H](CO[C@H]2O[C@H](CO)[C@@H](O)[C@H](O)[C@@H]2O)[C@@H](O)[C@H](O[C@H]2O[C@H](CO)[C@@H](O)[C@H](O)[C@@H]2O)[C@@H]1O [IOC-7] | 7.17 nM

Next, values leading:

Row | IC50 | Structure (SMILES)
4 | 30.9 nM | CC(=O)[C@H](CCCCN)NC(=O)CCCCC(=O)N[C@@H](CCC(=O)NCCCC[C@@H](C(=O)NCCO[C@H]1O[C@H](CO)[C@@H](O)[C@H](O)[C@@H]1O)N(CC(=O)NCCO[C@H]1O[C@H](CO)[C@@H](O)[C@H](O)[C@@H]1O)CC(=O)NCCO[C@H]1O[C@H](CO)[C@@H](O)[C@H](O)[C@@H]1O)C(=O)N[C@@H](CCC(=O)NCCCC[C@@H](C(=O)NCCO[C@H]1O[C@H](CO)[C@@H](O)[C@H](O)[C@@H]1O)N(CC(=O)NCCO[C@H]1O[C@H](CO)[C@@H](O)[C@H](O)[C@@H]1O)CC(=O)NCCO[C@H]1O[C@H](CO)[C@@H](O)[C@H](O)[C@@H]1O)C(=O)N[C@@H](CC(C)C)C(=O)NCCCC[C@@H](C(=O)NCCO[C@H]1O[C@H](CO)[C@@H](O)[C@H](O)[C@@H]1O)N(CC(=O)NCCO[C@H]1O[C@H](CO)[C@@H](O)[C@H](O)[C@@H]1O)CC(=O)NCCO[C@H]1O[C@H](CO)[C@@H](O)[C@H](O)[C@@H]1O [IOC-56]
5 | 1560 nM | CC(=O)[C@H](CCCCN)NC(=O)CCCCC(=O)N[C@@H](CCC(=O)NCCCC[C@@H](C(=O)NCCO[C@@H]1O[C@H](CO)[C@@H](O)[C@H](O)[C@H]1O)N(CC(=O)NCCO[C@@H]1O[C@H](CO)[C@@H](O)[C@H](O)[C@H]1O)CC(=O)NCCO[C@@H]1O[C@H](CO)[C@@H](O)[C@H](O)[C@H]1O)C(=O)N[C@@H](CCC(=O)NCCCC[C@@H](C(=O)NCCO[C@@H]1O[C@H](CO)[C@@H](O)[C@H](O)[C@H]1O)N(CC(=O)NCCO[C@@H]1O[C@H](CO)[C@@H](O)[C@H](O)[C@H]1O)CC(=O)NCCO[C@@H]1O[C@H](CO)[C@@H](O)[C@H](O)[C@H]1O)C(=O)N[C@@H](CC(C)C)C(=O)NCCCC[C@@H](C(=O)NCCO[C@@H]1O[C@H](CO)[C@@H](O)[C@H](O)[C@H]1O)N(CC(=O)NCCO[C@@H]1O[C@H](CO)[C@@H](O)[C@H](O)[C@H]1O)CC(=O)NCCO[C@@H]1O[C@H](CO)[C@@H](O)[C@H](O)[C@H]1O [IOC-57]

Same assay, conditions: Method F: 384-well plate; IP = inflection point; read-out: MRC1 Binding IP

Row | Structure (SMILES) | IC50
6 | CC(=O)[C@H](CCCCN)NC(=O)CCCCC(=O)NCC(=O)N[C@@H](CCC(=O)N[C@@H](CCC(=O)NCCCCCC(=O)N(CCOC1O[C@H](CO)[C@@H](O)[C@H](O)[C@@H]1O)CCO[C@H]1O[C@H](CO)[C@@H](O)[C@H](O)[C@@H]1O)C(=O)NCCCCCC(=O)N(CCOC1O[C@H](CO)[C@@H](O)[C@H](O)[C@@H]1O)CCOC1O[C@H](CO)[C@@H](O)[C@H](O)[C@@H]1O)C(=O)NCCCCCC(=O)NCCO[C@H]1O[C@H](CO[C@H]2O[C@H](CO)[C@@H](O)[C@H](O)[C@@H]2O)[C@@H](O)[C@H](O[C@H]2O[C@H](CO)[C@@H](O)[C@H](O)[C@@H]2O)[C@@H]1O (stereo partly shown) [IOC-30] | 37 nM
7 | CC(=O)[C@H](CCCCN)NC(=O)CCCCC(=O)NCC(=O)N[C@@H](CCC(=O)N[C@@H](CCC(=O)NCCCCCC(=O)N(CCOC1O[C@H](CO)[C@@H](O)[C@H](O)[C@@H]1O)CCO[C@H]1O[C@H](CO)[C@@H](O)[C@H](O)[C@@H]1O)C(=O)NCCCCCC(=O)N(CCOC1O[C@H](CO)[C@@H](O)[C@H](O)[C@@H]1O)CCOC1O[C@H](CO)[C@@H](O)[C@H](O)[C@@H]1O)C(=O)NCCCCCC(=O)NCCO[C@H]1O[C@H](CO[C@H]2O[C@H](CO)[C@@H](O)[C@H](O)[C@@H]2O)[C@@H](O)[C@H](O[C@H]2O[C@H](CO)[C@@H](O)[C@H](O)[C@@H]2O)[C@@H]1O (stereo partly shown) [IOC-29] | 18.5 nM

The remaining lines, values ahead:

Row | IC50 | Structure (SMILES)
8 | 28.8 nM | CC(=O)[C@H](CCCCN)NC(=O)CCCCC(=O)NCC(=O)N[C@@H](CCC(=O)N[C@@H](CCC(=O)NCCCCCC(=O)N(CCOC1O[C@H](CO)[C@@H](O)[C@H](O)[C@@H]1O)CCO[C@H]1O[C@H](CO)[C@@H](O)[C@H](O)[C@@H]1O)C(=O)NCCCCCC(=O)N(CCOC1O[C@H](CO)[C@@H](O)[C@H](O)[C@@H]1O)CCOC1O[C@H](CO)[C@@H](O)[C@H](O)[C@@H]1O)C(=O)NCCCCCC(=O)N(CC(=O)NCCO[C@@H]1O[C@@H](C)[C@@H](O)[C@@H](O)[C@@H]1O)CC(=O)NCCO[C@@H]1O[C@@H](C)[C@@H](O)[C@@H](O)[C@@H]1O (stereo partly shown) [IOC-51]
9 | 10.6 nM | CC(=O)[C@H](CCCCN)NC(=O)CCCCCNC(=O)[C@H](CCCCNC(=O)CN(CC(=O)NCCO[C@@H]1O[C@@H](C)[C@@H](O)[C@@H](O)[C@@H]1O)CC(=O)NCCO[C@@H]1O[C@@H](C)[C@@H](O)[C@@H](O)[C@@H]1O)NC(=O)[C@H](CCCCNC(=O)CN(CC(=O)NCCO[C@@H]1O[C@@H](C)[C@@H](O)[C@@H](O)[C@@H]1O)CC(=O)NCCO[C@@H]1O[C@@H](C)[C@@H](O)[C@@H](O)[C@@H]1O)NC(=O)CN(CC(=O)NCCO[C@@H]1O[C@@H](C)[C@@H](O)[C@@H](O)[C@@H]1O)CC(=O)NCCO[C@@H]1O[C@@H](C)[C@@H](O)[C@@H](O)[C@@H]1O [IOC-47]
10 | 16.6 nM | CC(=O)[C@H](CCCCN)NC(=O)CCCCC(=O)NCC(=O)N[C@@H](CCC(=O)N[C@@H](CCC(=O)NCCCCCC(=O)N(CCOC1O[C@H](CO)[C@@H](O)[C@H](O)[C@@H]1O)CCO[C@H]1O[C@H](CO)[C@@H](O)[C@H](O)[C@@H]1O)C(=O)NCCCCCC(=O)N(CCOC1O[C@H](CO)[C@@H](O)[C@H](O)[C@@H]1O)CCOC1O[C@H](CO)[C@@H](O)[C@H](O)[C@@H]1O)C(=O)NCCCCCC(=O)NCCO[C@H]1O[C@H](CO[C@H]2O[C@H](CO)[C@@H](O)[C@H](O)[C@@H]2O)[C@@H](O)[C@H](O[C@H]2O[C@H](CO)[C@@H](O)[C@H](O)[C@@H]2O)[C@@H]1O (stereo partly shown) [IOC-35]

From US12427187B2, “Glucose-responsive insulin conjugates” (priority 2019, dated 2025)
